Measurements taken from article PMC7759686, “Pharmacokinetics and Immunological Effects of Romidepsin in Rhesus Macaques” (Frontiers in Immunology, 2020).

Experiments:
Type in all cases: in vivo, rhesus macaques (Macaca mulatta)
[1] = tested on: H3 and H4 histone acetylation in peripheral CD4+ and CD8+ T cells; experiment: Histone acetylation assay (flow cytometry); details: 7 mg/m^2 4-h IV infusion
Procedure: The efficacy of RMD treatment was assessed by monitoring histone acetylation of frozen PBMCs: at the baseline, 6 h postinfusion, and 1, 2, and 5 days postinfusion, using a flow-cytometrical method, as described ([41]). Briefly, separated PBMCs were stained for surface markers for 20 min with: CD3-APC-Cy7 (SP34-2), CD4-V500 (L200), CD8-PE (SK1), CD14-BV570 (M5E2) (BioLegend, San Diego, CA), CD28-PE-CF594 (CD28.2), CD69-BV421 (FN50), CD95-PE-Cy5 (DX2), PD-1-PE-Cy7 (EH12.2H7) (BioLegend); all antibodies were from BD Biosciences, unless otherwise stated. PBMCs were then lysed with PhosFlow Lyse/Fix buffer (BD Biosciences) for 30 min and permeabilized with Perm Buffer [0.4% Triton X-100 in PBA (Sigma)] for 10 min, followed by washing. Permeabilized PBMCs were stained with the following antibodies for intracellular markers: Ac-H4 (3HH4-2C2) (Active Motif, Carlsbad, CA, USA) and Ki-67-Alexa Flour 647 (BD Biosciences). Ac-H4 recognizes motifs on histones H3 and H4 and was conjugated to FITC using Zenon reagent kit (Invitrogen, Carlsbad, CA). Stained PBMCs were then washed, fixed with BD Stabilizing Fixative (BD Biosciences), and acquired with a LSR-II flow cytometer. Data were analyzed with FlowJo software.

[2] = Serum chemistries (hepato-, nephro- and general toxicity markers); details: 3 RMs, 7 mg/m^2
From the text: Complete blood counts (CBCs) and serum chemistries were monitored in the collected samples from both the RMD-treated RMs and control RMs by either the Marshfield Laboratories (Cleveland, OH), IDEXX Reference Laboratories (IDEXX Laboratories, Inc, Westbrook, ME) or in house, using a ProCyte Hematology Analyzer (IDEXX Laboratories, Inc).

[3] = tested on: peripheral CD4+ and CD8+ T cells; experiment: Apoptosis and activation of peripheral T cells (whole blood flow cytometry); details: n = 3
Procedure: Whole blood was stained to monitor the impact of RMD on the immune cell populations. TruCount was used to determine absolute counts of CD3^+, CD4^+, CD8^+ T cells and CD20^+ B cells as described ([51]–[53]). Fifty microliters of whole blood were stained with antibodies against CD3-V450, CD4-APC, CD20-APC-H7, and CD45-PerCP in TruCount tubes (BD Biosciences, Franklin Lakes, NJ, USA) with a set number of fluorescent beads as internal standards. CD8^+ T cell counts were assessed through the ratio of CD8^+ to CD3^+ T cells. Whole blood was also stained with combinations of the following fluorescently labeled antibodies: CD3-V450 (SP34-2), CD4-APC (L200), CD8-PE-CF594 (RPA-T8), CD14-PE-Cy7 (M5E2), CD38-FITC (AT-1) (Stemcell, Vancouver, BC, CA), CD20-APC-H7 (2H7), CD69-APC-Cy7 (FN50), CD95-FITC (DX2), CCR5-PE (3A9), Annexin V-FITC, HLA-DR-PE-Cy7 (L243), NKG2A-PE (Z199) (Beckman Coulter, Pasadena, CA), Strepavidin-Alexa Fluor 750 (Life Technologies, Carlsbad, CA), Biotin-CCR7 (eBioscience, San Diego, CA), LIVE/DEAD Fixable Blue Dead Cell Stain Kit (Thermo Fisher Scientific); all antibodies were from BD Biosciences unless otherwise noted. For Ki-67-PE (B56) intracellular staining, cells were fixed and permeabilized prior to Ki-67 staining. Data were acquired with a LSR-II flow cytometer (BD Biosciences) or Fortessa flow cytometer (BD Biosciences) and analyzed with FlowJo software 10.7.0 (Treestar, Ashland, OR), as described ([51], [54]).

[4] = 3 days postinfusion, baseline 22
[5] = 4 days postinfusion, baseline 22

Structure (SMILES): C/C=C1\NC(=O)[C@H]2CSSCC/C=C/[C@H](CC(=O)N[C@H](C(C)C)C(=O)N2)OC(=O)[C@H](C(C)C)NC1=O [RMD, romidepsin]
- time of return of histone acetylation to near baseline level ([1]; CD4+ and CD8+ T cells, all RMs): ≤ 5 days postinfusion
- time of peak H3/H4 histone acetylation in blood CD4+ and CD8+ T cells ([1]; third RM (RM33)): 1 day postinfusion
- time of peak H3/H4 histone acetylation in blood CD4+ and CD8+ T cells ([1]; two of three RMs): 6 h postinfusion
- alanine aminotransferase (ALT) ([2]; 18 h postinfusion, baseline 22, normal range 14-94, not significant): 98 U/L
- aspartate aminotransferase (AST) ([2]; 18 h postinfusion, baseline 39, normal range 31-108, p < 0.05): 186 U/L
- creatinine ([2]; 3 days postinfusion, baseline 0.60): 0.63 mg/dL
- alanine aminotransferase (ALT) [2, 4]: 89 U/L
- urea nitrogen [2, 4]: 29 mg/dL
- aspartate aminotransferase (AST) ([2]; 3 days postinfusion, baseline 39): 101 U/L
- lactate dehydrogenase (LDH) ([2]; 3 days postinfusion, baseline 702, normal 514 ± 187): 1,562 U/L
- alanine aminotransferase (ALT) [2, 5]: 80 U/L
- urea nitrogen [2, 5]: 25 mg/dL
- aspartate aminotransferase (AST) ([2]; 4 days postinfusion, baseline 39): 91 U/L
- creatinine kinase (CK) ([2]; 4 days postinfusion, baseline 367): 1,740 U/L
- lactate dehydrogenase (LDH) ([2]; 4 days postinfusion, baseline 702): 1,323 U/L
- creatinine ([2]; peak, 18 h postinfusion, baseline 0.60, normal range 0.5-1.2): 0.77 mg/dL
- urea nitrogen ([2]; peak, 18 h postinfusion, baseline 22, normal range 8-25): 35 mg/dL
- creatinine kinase (CK) ([2]; peak, 18 h postinfusion, baseline 367, normal range 132-505, p < 0.05): 7,445 U/L
- frequency of apoptotic CD8+ T cells ([3]; 2 days postinfusion, baseline 2.1%, Annexin V and Live/Dead): 4.6%
- frequency of apoptotic CD4+ T cells ([3]; after RMD administration, baseline 3.7%, Annexin V and Live/Dead): 1.8%
- expression of T cell activation markers CD69 and Ki-67 on circulating CD4+ and CD8+ T cells ([3]; by 1 day postinfusion, not significant): increased
